Source: ChEMBL document CHEMBL4020788, “Synthesis, SAR and molecular docking studies of benzo[d]thiazole-hydrazones as potential antibacterial and antifungal agents” (2017)
Active and inactive are the calls of the source. No cut-off for these calls is given here.

How the values were obtained:
Format in all cases: functional
Bacillus subtilis [1] = experiment: Antibacterial activity against Bacillus subtilis at 75 ug/ml after 24 hrs by agar well diffusion method; conditions: for zone of inhibition at 75 µg/mL: read-out: DIZ
Staphylococcus aureus [2] = experiment: Antibacterial activity against Staphylococcus aureus at 100 ug/ml after 24 hrs by agar well diffusion method; conditions: for zone of inhibition at 100 µg/mL: read-out: DIZ
Fusarium verticillioides [3] = experiment: Antifungal activity against Fusarium moniliforme at 25 ug/ml after 48 hrs by agar well diffusion method; conditions: read-out: DIZ
Klebsiella pneumoniae [4] = experiment: Antibacterial activity against Klebsiella pneumoniae at 50 ug/ml after 24 hrs by agar well diffusion method; conditions: for zone of inhibition at 50 µg/mL: read-out: DIZ
Staphylococcus aureus [5] = experiment: Antibacterial activity against Staphylococcus aureus at 25 ug/ml after 24 hrs by agar well diffusion method
Aspergillus niger [6] = experiment: Antifungal activity against Aspergillus niger at 50 ug/ml after 48 hrs by agar well diffusion method; conditions: read-out: DIZ
Staphylococcus aureus [7] = experiment: Antibacterial activity against Staphylococcus aureus at 75 ug/ml after 24 hrs by agar well diffusion method; conditions: for zone of inhibition at 75 µg/mL: read-out: DIZ
Staphylococcus aureus [8] = experiment: Antibacterial activity against methicillin resistant Staphylococcus aureus MRSA090 at 75 ug/ml after 24 hrs by agar well diffusion method; conditions: MRSA090, 24 h, read-out: DIZ
Escherichia coli [9] = experiment: Antibacterial activity against Escherichia coli at 25 ug/ml after 24 hrs by agar well diffusion method; conditions: for zone of inhibition at 25 µg/mL: read-out: DIZ
Escherichia coli [10] = experiment: Antibacterial activity against Escherichia coli at 50 ug/ml after 24 hrs by agar well diffusion method; conditions: for zone of inhibition at 50 µg/mL: read-out: DIZ
Klebsiella pneumoniae [11] = experiment: Antibacterial activity against Klebsiella pneumoniae at 25 ug/ml after 24 hrs by agar well diffusion method; conditions: for zone of inhibition at 25 µg/mL: read-out: DIZ
Staphylococcus aureus [12] = experiment: Antibacterial activity against methicillin resistant Staphylococcus aureus MRSA090 at 50 ug/ml after 24 hrs by agar well diffusion method; conditions: MRSA090, 24 h, read-out: DIZ
Fusarium verticillioides [13] = experiment: Antifungal activity against Fusarium moniliforme at 50 ug/ml after 48 hrs by agar well diffusion method; conditions: read-out: DIZ
Staphylococcus aureus [14] = experiment: Antibacterial activity against Staphylococcus aureus at 50 ug/ml after 24 hrs by agar well diffusion method
Bacillus subtilis [15] = experiment: Antibacterial activity against Bacillus subtilis at 100 ug/ml after 24 hrs by agar well diffusion method; conditions: for zone of inhibition at 100 µg/mL: read-out: DIZ
Staphylococcus aureus [16] = experiment: Antibacterial activity against methicillin resistant Staphylococcus aureus MRSA090 at 25 ug/ml after 24 hrs by agar well diffusion method; conditions: MRSA090, 24 h, read-out: DIZ
Bacillus subtilis [17] = experiment: Antibacterial activity against Bacillus subtilis at 25 ug/ml after 24 hrs by agar well diffusion method; conditions: for zone of inhibition at 25 µg/mL: read-out: DIZ
Aspergillus niger [18] = experiment: Antifungal activity against Aspergillus niger at 100 ug/ml after 48 hrs by agar well diffusion method; conditions: read-out: DIZ
Escherichia coli [19] = experiment: Antibacterial activity against Escherichia coli at 100 ug/ml after 24 hrs by agar well diffusion method; conditions: read-out: DIZ
Bacillus subtilis [20] = experiment: Antibacterial activity against Bacillus subtilis at 50 ug/ml after 24 hrs by agar well diffusion method; conditions: for zone of inhibition at 50 µg/mL: read-out: DIZ
Klebsiella pneumoniae [21] = experiment: Antibacterial activity against Klebsiella pneumoniae at 100 ug/ml after 24 hrs by agar well diffusion method; conditions: for zone of inhibition at 100 µg/mL: read-out: DIZ
Aspergillus niger [22] = experiment: Antifungal activity against Aspergillus niger at 25 ug/ml after 48 hrs by agar well diffusion method; conditions: read-out: DIZ
Fusarium oxysporum [23] = experiment: Antifungal activity against Fusarium oxysporum at 50 ug/ml after 48 hrs by agar well diffusion method; conditions: read-out: DIZ
Staphylococcus aureus [24] = experiment: Antibacterial activity against methicillin resistant Staphylococcus aureus MRSA090 at 100 ug/ml after 24 hrs by agar well diffusion method; conditions: MRSA090, 24 h, read-out: DIZ
Fusarium oxysporum [25] = experiment: Antifungal activity against Fusarium oxysporum at 25 ug/ml after 48 hrs by agar well diffusion method; conditions: read-out: DIZ
Klebsiella pneumoniae [26] = experiment: Antibacterial activity against Klebsiella pneumoniae at 75 ug/ml after 24 hrs by agar well diffusion method; conditions: for zone of inhibition at 75 µg/mL: read-out: DIZ
Aspergillus niger [27] = experiment: Antifungal activity against Aspergillus niger at 75 ug/ml after 48 hrs by agar well diffusion method; conditions: read-out: DIZ
Fusarium oxysporum [28] = experiment: Antifungal activity against Fusarium oxysporum at 100 ug/ml after 48 hrs by agar well diffusion method; conditions: read-out: DIZ
Fusarium verticillioides [29] = experiment: Antifungal activity against Fusarium moniliforme at 100 ug/ml after 48 hrs by agar well diffusion method; conditions: read-out: DIZ
Escherichia coli [30] = experiment: Antibacterial activity against Escherichia coli at 75 ug/ml after 24 hrs by agar well diffusion method; conditions: read-out: DIZ
Fusarium verticillioides [31] = experiment: Antifungal activity against Fusarium moniliforme at 75 ug/ml after 48 hrs by agar well diffusion method; conditions: read-out: DIZ
Fusarium oxysporum [32] = experiment: Antifungal activity against Fusarium oxysporum at 75 ug/ml after 48 hrs by agar well diffusion method; conditions: read-out: DIZ

Structure (SMILES) | zone of inhibition at 25 µg/mL (Fusarium verticillioides [3]) | zone of inhibition at 50 µg/mL (Klebsiella pneumoniae [4]) | diameter of the inhibition zone (DIZ) (Staphylococcus aureus [5]) | zone of inhibition at 50 µg/mL (Aspergillus niger [6]) | zone of inhibition at 75 µg/mL (Staphylococcus aureus [8]) | zone of inhibition at 25 µg/mL (Escherichia coli [9]) | zone of inhibition at 50 µg/mL (Staphylococcus aureus [12]) | zone of inhibition at 50 µg/mL (Fusarium verticillioides [13]) | zone of inhibition at 25 µg/mL (Staphylococcus aureus [16]) | zone of inhibition at 100 µg/mL (Aspergillus niger [18]) | zone of inhibition at 100 µg/mL (Escherichia coli [19]) | zone of inhibition at 25 µg/mL (Aspergillus niger [22]) | zone of inhibition at 50 µg/mL (Fusarium oxysporum [23]) | zone of inhibition at 100 µg/mL (Staphylococcus aureus [24]) | zone of inhibition at 75 µg/mL (Aspergillus niger [27]) | zone of inhibition at 100 µg/mL (Fusarium oxysporum [28]) | zone of inhibition at 100 µg/mL (Fusarium verticillioides [29]) | zone of inhibition at 75 µg/mL (Escherichia coli [30]) | zone of inhibition at 75 µg/mL (Fusarium verticillioides [31]) | zone of inhibition at 75 µg/mL (Fusarium oxysporum [32]) | also measured
Cc1cccc2nc(N/N=C/c3ccco3)sc12 | 10 mm | 16 mm | inactive | 13 mm | 13 mm | 4 mm | 9 mm | 13 mm | 5 mm | 22 mm | 17 mm | 10 mm | 10 mm | 16 mm | 17 mm | 18 mm | 21 mm | 13 mm | 18 mm | 14 mm | diameter of the inhibition zone (DIZ) (Bacillus subtilis [1]): inactive; diameter of the inhibition zone (DIZ) (Staphylococcus aureus [2]): inactive; diameter of the inhibition zone (DIZ) (Staphylococcus aureus [7]): inactive; zone of inhibition at 50 µg/mL (Escherichia coli [10]): 9 mm; zone of inhibition at 25 µg/mL (Klebsiella pneumoniae [11]): 11 mm; diameter of the inhibition zone (DIZ) (Staphylococcus aureus [14]): inactive; diameter of the inhibition zone (DIZ) (Bacillus subtilis [15]): inactive; diameter of the inhibition zone (DIZ) (Bacillus subtilis [17]): inactive; diameter of the inhibition zone (DIZ) (Bacillus subtilis [20]): inactive; zone of inhibition at 100 µg/mL (Klebsiella pneumoniae [21]): 24 mm; zone of inhibition at 25 µg/mL (Fusarium oxysporum [25]): 4 mm; zone of inhibition at 75 µg/mL (Klebsiella pneumoniae [26]): 21 mm
Cc1cccc2nc(N/N=C/c3ccc(Br)cc3)sc12 | 12 mm | 11 mm | inactive | 18 mm | 15 mm | 3 mm | 11 mm | 17 mm | 9 mm | 28 mm | 14 mm | 14 mm | 18 mm | 19 mm | 23 mm | 29 mm | 28 mm | 11 mm | 24 mm | 23 mm | zone of inhibition at 75 µg/mL (Bacillus subtilis [1]): 11 mm; zone of inhibition at 100 µg/mL (Staphylococcus aureus [2]): 9 mm; zone of inhibition at 75 µg/mL (Staphylococcus aureus [7]): 5 mm; zone of inhibition at 50 µg/mL (Escherichia coli [10]): 7 mm; zone of inhibition at 25 µg/mL (Klebsiella pneumoniae [11]): 6 mm; diameter of the inhibition zone (DIZ) (Staphylococcus aureus [14]): inactive; zone of inhibition at 100 µg/mL (Bacillus subtilis [15]): 13 mm; zone of inhibition at 25 µg/mL (Bacillus subtilis [17]): 4 mm; zone of inhibition at 50 µg/mL (Bacillus subtilis [20]): 7 mm; zone of inhibition at 100 µg/mL (Klebsiella pneumoniae [21]): 17 mm; zone of inhibition at 25 µg/mL (Fusarium oxysporum [25]): 13 mm; zone of inhibition at 75 µg/mL (Klebsiella pneumoniae [26]): 14 mm
Cc1cccc2nc(N/N=C/c3ccc(Cl)cc3)sc12 | 11 mm |  |  | 13 mm | 12 mm |  | 9 mm | 14 mm | 4 mm | 19 mm | 10 mm | 8 mm | 11 mm | 15 mm | 16 mm | 17 mm | 26 mm | 6 mm | 20 mm | 14 mm | zone of inhibition at 75 µg/mL (Bacillus subtilis [1]): 11 mm; zone of inhibition at 100 µg/mL (Staphylococcus aureus [2]): 13 mm; diameter of the inhibition zone (DIZ) (Klebsiella pneumoniae [4]): inactive; zone of inhibition at 25 µg/mL (Staphylococcus aureus [5]; read-out: DIZ): 5 mm; zone of inhibition at 75 µg/mL (Staphylococcus aureus [7]): 11 mm; diameter of the inhibition zone (DIZ) (Escherichia coli [9]): inactive; diameter of the inhibition zone (DIZ) (Escherichia coli [10]): inactive; diameter of the inhibition zone (DIZ) (Klebsiella pneumoniae [11]): inactive; zone of inhibition at 50 µg/mL (Staphylococcus aureus [14]; read-out: DIZ): 9 mm; zone of inhibition at 100 µg/mL (Bacillus subtilis [15]): 14 mm; zone of inhibition at 25 µg/mL (Bacillus subtilis [17]): 7 mm; zone of inhibition at 50 µg/mL (Bacillus subtilis [20]): 9 mm; diameter of the inhibition zone (DIZ) (Klebsiella pneumoniae [21]): inactive; diameter of the inhibition zone (DIZ) (Klebsiella pneumoniae [26]): inactive
